Where only a bound is given, the exact number is not on record here.

Assay [1] concerns differentiated L6-myotubes. Nature of the assay: cAMP production relative to isoprenaline (Biological example 2 of WO 2019/053427). The format is cell-based. As to conditions: 0.25 h, compound at 10 μM, activity relative to isoproterenol at 10 μM. The gist of the method:
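Values are cAMP levels relative to isoprenaline at equal concentration (final 1×10^−5 M for both). Stimulation lasted 15 min in differentiated L6 myotubes, using HBSS buffer (pH 7.4) containing 1 mM IBMX, 5 mM HEPES and 1% BSA.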
In general terms: Cyclic AMP is a second messenger, typically raised through Gs and lowered through Gi signalling.

The subject of assay [2] is differentiated L6-myotubes. The assay is described as follows: Glucose uptake screen (Biological example 1 of WO 2019/053427). It is filed as cell-based. As to conditions: compound at 10 μM, activity relative to isoproterenol at 10 μM, read-out: Biological example 1 of WO 2019/053427 (GU). The gist of the method:
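Uptake was read out as ^3H-2-deoxyglucose (50 nM, 10 min) radioactivity in NaOH lysates. Beforehand, overnight-starved, differentiated L6 myotubes received compound at 1×10^−5 M with ICI-118551 present for 1 h 40 min, followed by fresh agonist for a further 20 min in glucose-free medium.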

Turning to `CC(=O)N[C@H]1CC[C@H](CNC[C@H](O)c2cccc(F)c2)CC1` [Compound 308, N-[(1R,4r)-4-{[(R)-2-(m-fluorophenyl)-2-hydroxyethylamino]methyl}cyclohexyl]acetamide], the Emax at 10 µM was less than 25% in assay [1] and 50 to 75% in assay [2].

Take `CC(=O)N[C@H]1CC[C@H](CNC[C@H](O)c2cncc(F)c2)CC1` [Compound 309, N-[(1R,4r)-4-{[(R)-2-(5-fluoro-3-pyridyl)-2-hydroxyethylamino]methyl}cyclohexyl]acetamide]: the Emax at 10 µM in assay [1] was less than 25%; in assay [2], 50 to 75%.

As to `CC(=O)N[C@H]1CC[C@@H](CNC[C@H](O)c2cncc(F)c2)CC1` [Compound 310, N-[(1S,4s)-4-{[(R)-2-(5-fluoro-3-pyridyl)-2-hydroxyethylamino]methyl}cyclohexyl]acetamide], the Emax at 10 µM in assay [1] is less than 25%; in assay [2], 25 to 50%.

As to `CS(=O)(=O)N[C@H]1CC[C@H](CNC[C@H](O)c2cccc(F)c2)CC1` [Compound 311, (R)-1-(m-fluorophenyl)-2-({[(1r,4R)-4-(mesylamino)cyclohexyl]methyl}amino)-1-ethanol], the Emax at 10 µM in assay [1] is less than 25%; in assay [2], 50 to 75%.

With `CS(=O)(=O)N[C@H]1CC[C@@H](CNC[C@H](O)c2cccc(F)c2)CC1` [Compound 312, (R)-1-(m-fluorophenyl)-2-({[(1s,4S)-4-(mesylamino)cyclohexyl]methyl}amino)-1-ethanol], the results for the Emax at 10 µM in assay [1] and in assay [2] were less than 25% and 50 to 75%, respectively.

Regarding `CS(=O)(=O)N[C@H]1CC[C@H](CNC[C@H](O)c2cncc(F)c2)CC1` [Compound 313, (R)-1-(5-fluoro-3-pyridyl)-2-({[(1r,4R)-4-(mesylamino)cyclohexyl]methyl}amino)-1-ethanol], the results for the Emax at 10 µM in assay [1] and in assay [2] were less than 25% and 25 to 50%, respectively.

On to `CS(=O)(=O)N[C@H]1CC[C@@H](CNC[C@H](O)c2cncc(F)c2)CC1` [Compound 314, (R)-1-(5-fluoro-3-pyridyl)-2-({[(1s,4S)-4-(mesylamino)cyclohexyl]methyl}amino)-1-ethanol], for which the Emax at 10 µM was less than 25% in assay [1] and 50 to 75% in assay [2].

`O=C(N[C@H]1CC[C@H](CNC[C@H](O)c2cccc(F)c2)CC1)c1ccccc1` [Compound 315, N-[(1R,4r)-4-{[(R)-2-(m-fluorophenyl)-2-hydroxyethylamino]methyl}cyclohexyl]benzamide]: the Emax at 10 µM in assay [1] is less than 25%; in assay [2], more than 75%.

As to `O=C(N[C@H]1CC[C@@H](CNC[C@H](O)c2cccc(F)c2)CC1)c1ccccc1` [Compound 316, N-[(1S,4s)-4-{[(R)-2-(m-fluorophenyl)-2-hydroxyethylamino]methyl}cyclohexyl]benzamide], the Emax at 10 µM in assay [1] is less than 25%; in assay [2], 50 to 75%.

On to `O=C(N[C@H]1CC[C@H](CNC[C@H](O)c2cncc(F)c2)CC1)c1ccccc1` [Compound 317, N-[(1R,4r)-4-{[(R)-2-(5-fluoro-3-pyridyl)-2-hydroxyethylamino]methyl}cyclohexyl]benzamide], for which the results for the Emax at 10 µM in assay [1] and in assay [2] were less than 25% and 50 to 75%, respectively.

Regarding `O=C(N[C@H]1CC[C@@H](CNC[C@H](O)c2cncc(F)c2)CC1)c1ccccc1` [Compound 318, N-[(1S,4s)-4-{[(R)-2-(5-fluoro-3-pyridyl)-2-hydroxyethylamino]methyl}cyclohexyl]benzamide], the Emax at 10 µM in assay [1] is less than 25%; in assay [2], 50 to 75%.

For the compound `CC(C)(CC[C@H]1CC[C@H](O)CC1)NC[C@H](O)c1ccccc1F` [Compound 319, (R)-2-{1,1-dimethyl-3-[(1r,4S)-4-hydroxycyclohexyl]propylamino}-1-(o-fluorophenyl)-1-ethanol], the values for the Emax at 10 µM in assay [1] and in assay [2] were less than 25% and more than 75%, respectively.

Regarding `CC(C)(CC[C@H]1CC[C@@H](O)CC1)NC[C@H](O)c1ccccc1F` [Compound 320, (R)-2-{1,1-dimethyl-3-[(1s,4R)-4-hydroxycyclohexyl]propylamino}-1-(o-fluorophenyl)-1-ethanol], the values for the Emax at 10 µM in assay [1] and in assay [2] were 25 to 50% and more than 75%, respectively.

`COC(=O)[C@H]1CC[C@@H](C(C)(C)NC[C@H](O)c2cncc(F)c2)CC1` [Compound 321, (1S,4s)-8-[(R)-2-(5-fluoro-3-pyridyl)-2-hydroxyethylamino]-7-methoxy-p-menthan-7-one]: the figures for the Emax at 10 µM in assay [1] and in assay [2] were less than 25% and 50 to 75%, respectively.

For `COC(=O)[C@H]1CC[C@@H](CC(C)(C)NC[C@H](O)c2cncc(F)c2)CC1` [Compound 322, methyl (1S,4s)-4-{2-[(R)-2-(5-fluoro-3-pyridyl)-2-hydroxyethylamino]-2-methylpropyl}cyclohexanecarboxylate], the figures for the Emax at 10 µM in assay [1] and in assay [2] were less than 25% and more than 75%, respectively.

As to `CC(C)(NC[C@H](O)c1cncc(F)c1)[C@H]1CC[C@@H](C(=O)O)CC1` [Compound 323, (1S,4s)-8-[(R)-2-(5-fluoro-3-pyridyl)-2-hydroxyethylamino]-7-hydroxy-p-menthan-7-one], the Emax at 10 µM in assay [1] lay in the range of 50 to 75%; in assay [2], 25 to 50%.

In the case of `CC(C)(C[C@H]1CC[C@@H](C(=O)O)CC1)NC[C@H](O)c1cncc(F)c1` [Compound 324, (1S,4s)-4-{2-[(R)-2-(5-fluoro-3-pyridyl)-2-hydroxyethylamino]-2-methylpropyl}cyclohexanecarboxylic acid], the Emax at 10 µM is less than 25% in assay [1] and 25 to 50% in assay [2].

As to `CO[C@H]1CC[C@H](C[C@@H]2CC[C@H]([C@@H](O)c3cccc(F)c3)N2)CC1` [Compound 325, (S)-[(2R,5S)-5-{[(1r,4S)-4-methoxycyclohexyl]methyl}-2-pyrrolidinyl](m-fluorophenyl)methanol], the Emax at 10 µM in assay [1] is less than 25%; in assay [2], more than 75%.

Consider `CO[C@H]1CC[C@H](C[C@@H]2CC[C@H]([C@H](O)c3cccc(F)c3)N2)CC1` [Compound 326, (R)-[(2R,5S)-5-{[(1r,4S)-4-methoxycyclohexyl]methyl}-2-pyrrolidinyl](m-fluorophenyl)methanol], for which the Emax at 10 µM in assay [1] was less than 25%; in assay [2], more than 75%.

Turning to `COC(=O)[C@H]1CC[C@@H](CC(C)(C)NC[C@H](O)c2cccc(F)c2)CC1` [Compound 327, methyl (1S,4s)-4-{2-[(R)-2-(m-fluorophenyl)-2-hydroxyethylamino]-2-methylpropyl}cyclohexanecarboxylate], the Emax at 10 µM in assay [1] was less than 25%; in assay [2] it was more than 75%.

With `COC(=O)[C@H]1CC[C@@H](C(C)(C)NC[C@H](O)c2cccc(F)c2)CC1` [Compound 328, (1S,4s)-8-[(R)-2-(m-fluorophenyl)-2-hydroxyethylamino]-7-methoxy-p-menthan-7-one], the Emax at 10 µM was less than 25% in assay [1] and more than 75% in assay [2].

As to `COCC12CCC([C@@H](O)c3cccc(F)c3)(CC1)N2` [Compound 329, (S)-(m-fluorophenyl){4-(methoxymethyl)-7-azabicyclo[2.2.1]hept-1-yl}methanol], the Emax at 10 µM in assay [1] was less than 25%; in assay [2], 25 to 50%.

In the case of `COCC12CCC([C@H](O)c3cccc(F)c3)(CC1)N2` [Compound 330, (R)-(m-fluorophenyl){4-(methoxymethyl)-7-azabicyclo[2.2.1]hept-1-yl}methanol], the Emax at 10 µM in assay [1] is less than 25%; in assay [2], more than 75%.

Regarding `CC(C)(C[C@H]1CC[C@@H](C(=O)O)CC1)NC[C@H](O)c1cccc(F)c1` [Compound 331, (1S,4s)-4-{2-[(R)-2-(m-fluorophenyl)-2-hydroxyethylamino]-2-methylpropyl}cyclohexanecarboxylic acid], the values for the Emax at 10 µM in assay [1] and in assay [2] were less than 25% and 25 to 50%, respectively.

`CO[C@H]1CC[C@H](C[C@@H]2CC[C@H]([C@@H](O)c3cncc(F)c3)N2)CC1` [Compound 332, (S)-[(2R,5S)-5-{[(1r,4S)-4-methoxycyclohexyl]methyl}-2-pyrrolidinyl](5-fluoro-3-pyridyl)methanol]: the Emax at 10 µM in assay [1] is less than 25%; in assay [2] it was 25 to 50%.

For `CO[C@H]1CC[C@H](C[C@@H]2CC[C@H]([C@H](O)c3cncc(F)c3)N2)CC1` [Compound 333, (R)-[(2R,5S)-5-{[(1r,4S)-4-methoxycyclohexyl]methyl}-2-pyrrolidinyl](5-fluoro-3-pyridyl)methanol], the results for the Emax at 10 µM in assay [1] and in assay [2] were less than 25% and 25 to 50%, respectively.

As to `CO[C@H]1CC[C@H](C[C@H]2CC[C@H]([C@@H](O)c3cccc(F)c3)N2)CC1` [Compound 334, (S)-[(2R,5R)-5-{[(1r,4R)-4-methoxycyclohexyl]methyl}-2-pyrrolidinyl](m-fluorophenyl)methanol], the Emax at 10 µM in assay [1] was less than 25%; in assay [2], 25 to 50%.

`CO[C@H]1CC[C@H](C[C@H]2CC[C@H]([C@H](O)c3cccc(F)c3)N2)CC1` [Compound 335, (R)-[(2R,5R)-5-{[(1r,4R)-4-methoxycyclohexyl]methyl}-2-pyrrolidinyl](m-fluorophenyl)methanol]: the Emax at 10 µM in assay [1] is less than 25%; in assay [2] it was more than 75%.

Turning to `CO[C@H]1CC[C@H](C[C@@H]2CC[C@H]([C@@H](O)c3ccccc3F)N2)CC1` [Compound 336], the Emax at 10 µM in assay [1] is less than 25%; in assay [2] it was 25 to 50%.

`CO[C@H]1CC[C@H](C[C@@H]2CC[C@H]([C@H](O)c3ccccc3F)N2)CC1` [Compound 337, (R)-[(2R,5S)-5-{[(1r,4S)-4-methoxycyclohexyl]methyl}-2-pyrrolidinyl](o-fluorophenyl)methanol]: the Emax at 10 µM in assay [1] is less than 25%; in assay [2], more than 75%.

These data come from patent US20260256751A1, “COMBINATION OF BETA-2-ADRENERGIC RECEPTOR AGONISTS AND GLP-1 RECEPTOR AGONISTS FOR USE IN TREATING HYPERGLYCAEMIA” (ATROGI AB, priority 2023, published 2026).
